Source: PMC11695783 (Frontiers in Pharmacology, 2024)
Values joined by “and” are separate entries in the source; they are usually repeats but may differ in a detail not shown here. Equal entries are not always repeated.

Experiments:
[1] = test system: Mycoplasma pneumoniae strain M129 (ATCC 29342); assay: Time-kill curves; type: cell-based; parameters: M. pneumoniae count in time-kill curve: unit not given here
In short: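 Strain grown at 37 °C, 5% CO2 in modified SP-4 broth (pH 7.4, 20% FBS). Cultures incubated 72 h, sampled every 12 h, 10-fold serially diluted and plated on SP-4 agar; colonies counted after 7 d. Three repeats.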

TNF-α = TNF-α in BALF of M. pneumoniae-infected mice (ELISA); type: in vivo, BALB/c mice; conditions: for TNF-α in BALF (AV): group AV; for TNF-α in BALF: individual mice
Experimental: Adult BALB/c mice (20–22 g) were divided into a control group, a positive group, and compound 16C groups at low (20 mg/kg), medium (40 mg/kg), and high-dose (80 mg/kg) levels and oral and intramuscular tiamulin treatment groups (40 mg/kg). We formulated the above dose range based on the dose at which tiamulin was approved for injection (10–20 mg/kg) and the dose previously reported (45 mg/kg) ([EMA, 1999]; [Xiao et al., 2016]). In summary, we selected similar doses for compound 16C in vivo study. 40 mg/kg was used as an intermediate value, one-half of it as a low dose, and two times of it as a high dose. To prepare the challenge solution, logarithmic phase culture suspensions were centrifuged at 1700 g for 10 min, and the pellets were suspended in sterile PBS to obtain 1 × 10^9 CFU/mL. Before the challenge, mice were anesthetized with tribromoethanol (250 mg/kg, IP). Mice in the control groups were intratracheally inoculated with sterile PBS, whereas mice in the other groups were intratracheally challenged with 50 μL (1 × 10^9 CFU/mL) M. pneumoniae suspension once a day for 3 days. Compound 16C and tiamulin (tiamulin-IM group) dissolved using the method mentioned in pharmacokinetic studies, and the tiamulin fumarate soluble powder was dissolved in ddH2O for oral administration. After the final challenge, antibiotics were administered at low, medium, and high-dose levels (see above) at 10 a.m. and 10 p.m. daily for 4 consecutive days. Normal saline containing 5% DMSO and 5% Tween-80 was administered as control and positive groups by thigh intramuscular injection. To compare the efficacy of compound 16C and tiamulin under the same route of administration, we used the original tiamulin for intramuscular administration in the same formulation. On the other hand, tiamulin fumarate soluble powder, approved for oral administration to treat animal mycoplasma diseases in China, was administered to mice by gavage. Based on a clinical study of lefamulin in community-acquired bacterial pneumonia (CABP), subjects were administered twice a day and the 96 ± 24 h of starting treatment was an essential point for early clinical response (ECR) ([Paukner et al., 2022]). We therefore stopped treatment at 96 h and sampled at 192 h to explore whether the disease worsened after cessation of treatment. Bronchoalveolar lavage fluid (BALF) and lungs were collected at 0, 96, 192 h (Samples of 0 h were collected before starting treatment, and mice were fed ad libitum without drug treatment during 96–192 h) after the first dose, BALF for cytokine and cytological analysis and lung for histopathological evaluation.
Bronchoalveolar lavage was performed according to a standardized method ([Van Hoecke et al., 2017]). BALF was obtained following infusion of 0.5 mL PBS via tracheal cannulation into the lung twice (total 1 mL), and 200 µL was used for mycoplasma counts. The remaining BALF was centrifuged at 300 g for 10 min to separate the debris. The supernatants were stored at −80°C, and the debris was resuspended in the same volume of PBS containing red blood cell lysis buffer. A hemocytometer was used to count total cell numbers in BALF, and cell smears (Diff-Quik staining) were prepared to calculate the percentages of neutrophils, macrophages, and lymphocytes. IFN-γ, TNF-α, and CXCL1 levels in BALF samples were assessed using commercial ELISA kits using guidelines recommended by the manufacturer (Elabscience, Wuhan, China). Parallel data for each experimental group at each time point were obtained from six different mice.

[2] = tiamulin 40 mg/kg IM, 96 h, listed as Tiamulin-IM

## C=C[C@]1(C)C[C@@H](OC(=O)CSCCN(CC)CC)[C@]2(C)[C@H](C)CC[C@]3(CCC(=O)[C@H]32)[C@@H](C)[C@@H]1O [tiamulin, Tiamulin, reference compound]
[1]; 1×MIC, time 0
  M. pneumoniae count in time-kill curve: 6.339
[1]; 1×MIC, time 12
  M. pneumoniae count in time-kill curve: 5.698
[1]; 1×MIC, time 24
  M. pneumoniae count in time-kill curve: 6.253
[1]; 1×MIC, time 36
  M. pneumoniae count in time-kill curve: 5.423
[1]; 1×MIC, time 48
  M. pneumoniae count in time-kill curve: 4.896
[1]; 1×MIC, time 60
  M. pneumoniae count in time-kill curve: 5.29
[1]; 1×MIC, time 72
  M. pneumoniae count in time-kill curve: 4.787
[1]; 2×MIC, time 0
  M. pneumoniae count in time-kill curve: 6.339
[1]; 2×MIC, time 12
  M. pneumoniae count in time-kill curve: 6.4123
[1]; 2×MIC, time 24
  M. pneumoniae count in time-kill curve: 6.433
[1]; 2×MIC, time 36
  M. pneumoniae count in time-kill curve: 4.77
[1]; 2×MIC, time 48
  M. pneumoniae count in time-kill curve: 4.196
[1]; 2×MIC, time 60
  M. pneumoniae count in time-kill curve: 3.827
[1]; 2×MIC, time 72
  M. pneumoniae count in time-kill curve: 3.91
[1]; 4×MIC, time 0
  M. pneumoniae count in time-kill curve: 6.339
[1]; 4×MIC, time 12
  M. pneumoniae count in time-kill curve: 6.61
[1]; 4×MIC, time 24
  M. pneumoniae count in time-kill curve: 6.296
[1]; 4×MIC, time 36
  M. pneumoniae count in time-kill curve: 3.841
[1]; 4×MIC, time 48
  M. pneumoniae count in time-kill curve: 3.684
[1]; 4×MIC, time 60
  M. pneumoniae count in time-kill curve: 3.889
[1]; 4×MIC, time 72
  M. pneumoniae count in time-kill curve: 3.638
[1]; 8×MIC, time 0
  M. pneumoniae count in time-kill curve: 6.339
[1]; 8×MIC, time 12
  M. pneumoniae count in time-kill curve: 6.119
[1]; 8×MIC, time 24
  M. pneumoniae count in time-kill curve: 6.148
[1]; 8×MIC, time 36
  M. pneumoniae count in time-kill curve: 3.952
[1]; 8×MIC, time 48
  M. pneumoniae count in time-kill curve: 3.772
[1]; 8×MIC, time 60
  M. pneumoniae count in time-kill curve: 3.839
[1]; 8×MIC, time 72
  M. pneumoniae count in time-kill curve: 3.776
[1]; 16×MIC, time 0
  M. pneumoniae count in time-kill curve: 6.339
[1]; 16×MIC, time 12
  M. pneumoniae count in time-kill curve: 6.238
[1]; 16×MIC, time 24
  M. pneumoniae count in time-kill curve: 5.56
[1]; 16×MIC, time 36
  M. pneumoniae count in time-kill curve: 4
[1]; 16×MIC, time 48
  M. pneumoniae count in time-kill curve: 3.739
[1]; 16×MIC, time 60
  M. pneumoniae count in time-kill curve: 3.621
[1]; 16×MIC, time 72
  M. pneumoniae count in time-kill curve: 3.801
[1]; 32×MIC, time 0
  M. pneumoniae count in time-kill curve: 6.339
[1]; 32×MIC, time 12
  M. pneumoniae count in time-kill curve: 6.569
[1]; 32×MIC, time 24
  M. pneumoniae count in time-kill curve: 5.262
[1]; 32×MIC, time 36
  M. pneumoniae count in time-kill curve: 3.833
[1]; 32×MIC, time 48
  M. pneumoniae count in time-kill curve: 3.266
[1]; 32×MIC, time 60
  M. pneumoniae count in time-kill curve: 3.249
[1]; 32×MIC, time 72
  M. pneumoniae count in time-kill curve: 3.425
[1]; 64×MIC, time 0
  M. pneumoniae count in time-kill curve: 6.339
[1]; 64×MIC, time 12
  M. pneumoniae count in time-kill curve: 6.625
[1]; 64×MIC, time 24
  M. pneumoniae count in time-kill curve: 4.23
[1]; 64×MIC, time 36
  M. pneumoniae count in time-kill curve: 3.61
[1]; 64×MIC, time 48
  M. pneumoniae count in time-kill curve: 3.065
[1]; 64×MIC, time 60
  M. pneumoniae count in time-kill curve: 3.16
[1]; 64×MIC, time 72
  M. pneumoniae count in time-kill curve: 3.29
[1]; static time-kill, 72 h
  concentration at which bactericidal effect was achieved: 64 × MIC
TNF-α; [2]
  TNF-α in BALF (AV): 25.628 pg/mL
  TNF-α in BALF: 36.6513 pg/mL and 20.2192 pg/mL and 19.4095 pg/mL and 27.905 pg/mL and 23.325 pg/mL and 26.258 pg/mL
TNF-α; tiamulin 40 mg/kg IM, 96 h, listed as TiamulinIM
  TNF-α in BALF (AV): 25.4267 pg/mL
TNF-α; tiamulin 40 mg/kg IM, 192 h
  TNF-α in BALF (AV): 10.6403 pg/mL
TNF-α; tiamulin 40 mg/kg IM, 192 h, listed as Tiamulin-IM
  TNF-α in BALF: 0.9088 pg/mL and 8.569 pg/mL and 21.5375 pg/mL and 21.2768 pg/mL
TNF-α; tiamulin 40 mg/kg PO (fumarate soluble powder), 96 h
  TNF-α in BALF (AV): 17.9906 pg/mL
TNF-α; tiamulin 40 mg/kg PO (fumarate soluble powder), 192 h
  TNF-α in BALF (AV): 9.318 pg/mL
